Source: patent publication US11505532B2, “SSAO inhibitor” (SHANDONG DANHONG PHARMACEUTICAL CO., LTD., priority 2017, dated 2022)
pIC50: −log10 of the molar value.

Experiments:
[1] = Distribution of compounds in liver and blood of CD-1 mice; assay type: in vivo; settings: single oral dose; for Liver Concentration (@1.0 hour) / Plasma Concentration (@1.0 hour): 1 hour after administration; for Liver Concentration/Plasma Concentration (@1.0 hour) / Liver Concentration/Plasma Concentration (@4.0 hour): ratio; for Liver Concentration (@4.0 hour) / Plasma Concentration (@4.0 hour): 4 hours after administration
Experimental: Experimental purpose: distribution of compounds in liver and blood of CD-1 mice was tested;
CD-1 Mice (male, 25-35 g, 6-9 weeks old, Shanghai Slack);
Experimental procedure: after oral administration, the drug was distributed in the liver and blood of rodents, candidate compounds in the experiment were formulated into a clear solution to be administered to mice in a single oral dose. The oral solvent was a certain proportion of an aqueous solution of hydroxypropyl β-cyclodextrin or a physiological saline solution. The concentration of the drug in the liver and blood was measured at 1 hour and 4 hours after administration.

[2] = target: hERG potassium ion channel (Homo sapiens (Human), UniProt Q12809); assay: Inhibition test of hERG potassium ion channel (automatic patch clamp, CHO-hERG cells); assay type: cell-based; settings: conclusion in words
Chain of hERG potassium ion channel (Q12809 whole entry): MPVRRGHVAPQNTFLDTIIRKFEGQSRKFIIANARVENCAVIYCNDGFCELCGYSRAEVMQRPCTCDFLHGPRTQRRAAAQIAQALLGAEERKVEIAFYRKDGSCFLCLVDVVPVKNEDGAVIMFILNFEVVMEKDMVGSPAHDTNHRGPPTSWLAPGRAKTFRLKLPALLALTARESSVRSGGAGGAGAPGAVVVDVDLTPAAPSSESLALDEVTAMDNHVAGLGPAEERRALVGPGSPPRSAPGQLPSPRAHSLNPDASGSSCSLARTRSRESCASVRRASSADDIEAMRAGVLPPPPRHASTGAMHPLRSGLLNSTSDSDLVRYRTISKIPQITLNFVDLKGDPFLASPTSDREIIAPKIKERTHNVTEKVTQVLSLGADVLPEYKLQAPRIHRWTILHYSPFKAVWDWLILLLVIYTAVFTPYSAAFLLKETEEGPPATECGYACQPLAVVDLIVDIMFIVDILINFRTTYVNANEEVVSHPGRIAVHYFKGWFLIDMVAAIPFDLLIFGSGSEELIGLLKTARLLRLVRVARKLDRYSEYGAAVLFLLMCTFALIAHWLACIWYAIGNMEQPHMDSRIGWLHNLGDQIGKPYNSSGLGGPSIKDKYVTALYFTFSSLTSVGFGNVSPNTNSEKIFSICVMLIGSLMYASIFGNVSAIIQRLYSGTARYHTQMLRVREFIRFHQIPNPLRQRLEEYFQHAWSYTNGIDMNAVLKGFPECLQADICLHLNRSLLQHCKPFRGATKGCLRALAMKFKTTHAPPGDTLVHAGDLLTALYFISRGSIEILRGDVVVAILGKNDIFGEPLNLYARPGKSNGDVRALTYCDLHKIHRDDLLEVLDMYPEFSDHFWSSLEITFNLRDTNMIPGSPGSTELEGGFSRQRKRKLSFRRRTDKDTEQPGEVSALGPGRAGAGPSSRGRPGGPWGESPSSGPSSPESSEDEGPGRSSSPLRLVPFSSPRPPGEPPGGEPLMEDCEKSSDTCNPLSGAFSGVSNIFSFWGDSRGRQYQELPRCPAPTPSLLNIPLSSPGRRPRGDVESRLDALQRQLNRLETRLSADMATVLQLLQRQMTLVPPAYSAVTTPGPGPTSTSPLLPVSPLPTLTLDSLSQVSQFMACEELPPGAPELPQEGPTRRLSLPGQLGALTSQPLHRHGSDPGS
Experimental: The effect of the to-be-tested compound on the potassium ion channel of hERG was detected by a fully automatic patch clamp method.
The cells stably expressing hERG potassium channel used in the experiment were obtained from CHO-hERE of Aviva Biosciences, and CHO-hERG was cultured in 5% CO2 at 37° C.
CHO-hERG cells prepared for the experiment were cultured for at least two days, and the cell density reached 75% or more. Prior to the start of the experiment, cells were digested with TrypLE and then resuspended in extracellular fluid to collect the cells.
Extracellular fluids need to be prepared once a month. The intracellular fluid need to be subpackaged and frozen at −20° C.
The to-be-tested compound and the positive control Amitriptyline were dissolved in DMSO to a certain concentration of the stock solution, and then diluted according to different gradients, and finally added to the extracellular fluid in a certain ratio, and diluted to a concentration to be measured. Visual inspection was performed to see if there was any precipitation before the start of the experiment. Finally, the concentration of DMSO in the to-be-tested solution and the positive control Amitriptyline should not exceed 0.3%. […]
In each complete current record, based on the percentage of peak current in the negative control, the percent inhibition of the concentration of each compound can be calculated. […]

VAP-1/SSAO [3] = target: T1, VAP-1/SSAO (Homo sapiens (Human), UniProt Q16853); assay: Human VAP-1 enzyme activity assay (Amplex Red Monoamine Oxidase kit); assay type: biochemical; settings: 10 nM VAP-1 enzyme, 30 min preincubation, benzylamine substrate; read-out: Human Recombinant VAP-1/SSAO Enzyme Inhibitory Activity IC50
T1 sequence (Q16853 whole entry): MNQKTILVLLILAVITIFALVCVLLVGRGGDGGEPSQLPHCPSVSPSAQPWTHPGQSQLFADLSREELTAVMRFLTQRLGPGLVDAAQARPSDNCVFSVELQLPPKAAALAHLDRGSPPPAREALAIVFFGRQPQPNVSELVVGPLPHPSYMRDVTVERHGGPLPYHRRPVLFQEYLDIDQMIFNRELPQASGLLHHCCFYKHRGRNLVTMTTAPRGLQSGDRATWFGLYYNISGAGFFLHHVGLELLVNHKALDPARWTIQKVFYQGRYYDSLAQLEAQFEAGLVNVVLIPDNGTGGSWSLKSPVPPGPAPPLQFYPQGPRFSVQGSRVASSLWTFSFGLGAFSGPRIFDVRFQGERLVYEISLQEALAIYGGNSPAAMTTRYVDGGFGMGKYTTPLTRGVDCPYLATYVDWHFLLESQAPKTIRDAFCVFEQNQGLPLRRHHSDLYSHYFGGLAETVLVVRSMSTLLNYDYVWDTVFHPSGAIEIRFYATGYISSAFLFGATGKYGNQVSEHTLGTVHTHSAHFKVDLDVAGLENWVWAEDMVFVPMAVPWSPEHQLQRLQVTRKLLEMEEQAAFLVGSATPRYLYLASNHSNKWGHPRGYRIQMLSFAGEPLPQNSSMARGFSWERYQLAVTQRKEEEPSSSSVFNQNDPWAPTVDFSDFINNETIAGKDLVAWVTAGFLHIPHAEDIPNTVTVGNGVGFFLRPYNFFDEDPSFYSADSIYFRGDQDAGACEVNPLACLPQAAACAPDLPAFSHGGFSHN
Experimental: Human VAP-1 Enzyme Activity Assay:
The inhibition of the sample on VAP-1 enzyme activity was measured by using an Amplex® Red Monoamine Oxidase kit (Invitrogen #A12214). 100 nL of the gradiently-diluted to-be-tested compound (solvent DMSO) was added to a 384-well plate. 25 μL of 10 nM VAP-1 enzyme solution was added and incubated for 30 minutes at room temperature. A substrate mixture of VAP-1 enzyme (200 μM Amplex Red, 1 U/mL HRP, 1 mM Benzylamine) was added and incubated for 60 minutes at room temperature. After the incubation, the fluorescent signal was read with a microplate reader Envision (excitation light wavelength 530-560 nm, emission light wavelength 590 nm). The fluorescence signal value after the background signal was removed was analyzed by Prism software, and the IC50 of the sample against the VAP-1 enzyme was calculated.

VAP-1/SSAO [4] = target: T1, VAP-1/SSAO; assay: VAP-1 cell activity assay (HUVEC or CHO cells transfected with VAP-1/pCDNA(3.1) plasmid, Amplex Red); assay type: cell-based; settings: HUVEC or CHO cells transfected with VAP-1 plasmid; read-out: VAP-1/SSAO Cellular Inhibitory Activity IC50
Experimental: The inhibition of the sample on VAP-1 cell activity was measured by using an Amplex® Red Monoamine Oxidase kit (Invitrogen #A12214).
The cultured HUVEC or CHO cells were plated into a 6-well plate at a density of 0.8 M/well, placed in a 37° C., 5% CO2 incubator for incubation for 24 hours, and then the cells was transferred with a Lipo2000 reagent and a VAP-1/pCDNA (3.1) plasmid, and liquid was changed for the cells after 5 hours (Lipo2000 was toxic to the cells); after 24 hours, the cells were digested and plated into 384-well plates with a density of 25 μl, 10000 cells/well, and liquid was replaced with medium without FBS for the cells after 6-7 hours, and the cell plates were incubated overnight at 37° C. in a 5% CO2 incubator.
1) Dilution of the compound: serial dilution in 4× gradient was carried out with 100% DMSO, 10 points were diluted, the starting concentration of the to-be-tested compound was 0.5 mM (final concentration was 1) μM); 100 nl of compound solution was transferred to a 384-well cell assay plate with ECHO. […]
5) The reaction was carried out in the dark at room temperature for 60 minutes, and the fluorescence value was measured by Envision: the excitation wave was 535 nm, and the emission wave was 590 nm. […]
7) The data were analyzed with Prism. The IC50 of the sample against VAP-1 cells was calculated.

[5] = test system: CCl4-induced chronic liver fibrosis male C57BL/6 model; assay: Oral CCl4-induced chronic liver fibrosis model; assay type: in vivo, C57BL/6 mice; settings: oral daily for 28 days, superior to PXS-4728A in the same dosage
Experimental: The therapeutic effect of compounds on an oral CCl4-induced chronic liver fibrosis male C57BL/6 model was tested.
Male C57BL/6 mice, 7-8 weeks old;
Experimental method: Male C57BL/6 mice were orally administered from the day CCl4 was put for modeling, and administered daily. Continuous administration was conducted for 28 days. The animals were fasted for at least 6 hours on the next day after the last administration Animal weight was measured during euthanasia and all animals were euthanized under the guidance of the KCl Animal Euthanasia SOP. Non-anticoagulant venous blood of mice was collected from the ocular venous plexus. The whole blood was allowed to stand at room temperature for 30 minutes, and centrifuged at 5000 rpm for 5 minutes, and the serum was separated and placed in a 1.5 ml EP tube and stored at −80° C. After the whole body of the animal was perfused with hypothermic saline, the liver was taken and subjected to tissue gross image acquisition. The left lobe of the liver was divided into 4 equal parts and put into 4 tissue cryotubes for liquid nitrogen freezing, and then transferred to −80° C. for storage. The rest of the liver tissue was fixed in 10% neutral formalin fixative. […] HE staining was subjected to double-blind score by two pathological readers, and the area of hepatic fibrosis was analyzed for sirius-red stained sections by digital pathology.

| Liver Concentration (@1.0 hour) [1] | Plasma Concentration (@1.0 hour) [1] | Liver Concentration/Plasma Concentration (@1.0 hour) [1] | Liver Concentration (@4.0 hour) [1] | Plasma Concentration (@4.0 hour) [1] | Liver Concentration/Plasma Concentration (@4.0 hour) [1] | pIC50 (VAP-1/SSAO [3]) | pIC50 (VAP-1/SSAO [4]) | SMILES | inhibition of hERG potassium current [2] | effect on liver fibrosis (Sirius-Red staining) [5] | effect on liver injury (liver injury score, HE staining) [5] |
| --- | --- | --- | --- | --- | --- | --- | --- | --- | --- | --- | --- |
| 13140 | 1470 | 10 | 2120 | 154 | 14 |  |  | CC(C)(C)NC(=O)c1ccc(OC/C(=C/F)CN)cc1.Cl [PXS-4728A, reference compound] |  |  |  |
|  |  |  |  |  |  |  |  | Cc1noc(-c2ccc(OC/C(=C/F)CN)cc2)n1.Cl [WX008] | weak inhibition |  |  |
|  |  |  |  |  |  | 8.74 | 9.70 | Cn1nc(-c2ccc(OC/C(=C/F)CN)cc2F)nc1C1CC1 [WX098] |  |  |  |
| 13520 | 934 | 15 | 3364 | 190 | 17 |  |  | Cl.Cn1nc(-c2ccc(OC/C(=C/F)CN)cc2)nc1C(F)F [WX126] | weak inhibition | obvious improvement effect | obvious improvement effect |
